≈ marks a conversion by molar mass, not a printed value. Entries after “also recorded” stand apart in the source; their conditions may differ.
What was measured:
L. donovani [1] = assay: Effect of leishmaniasis drugs on the number of pathogens in liver and spleen of rats infected with L. donovani (Examples 39, 40); type: in vivo; details: for Relative effectiveness (pathogens per liver after Pentostam therapy divided by pathogens/liver after addition of test substance) / Pathogens per liver (in millions): orally 5 × 20 mg/kg/week for 3 weeks; for Pathogens per liver (in millions): rats infected with L. donovani, microscopic analysis
Method: Effect of various leishmaniasis drugs on the presence of pathogens in the liver of experimental animals (rats) infected with L. donovani.
The compounds according to the present invention and Et18OCH3 were administered orally while Pentostam was administered intravenously.
The number of pathogens per liver was determined by microscopic analysis.
The experimental procedure was as described in example 39.

L. donovani [2] = assay: as above; type: in vivo; details: for Pathogens per spleen (in millions): 3 week period of therapy; for Relative effectiveness (pathogens per spleen after Pentostam therapy divided by pathogens/spleen after addition of test substance): procedure as in example 39 (orally 5 × 20 mg/kg/week for 3 weeks)
[3] = tested on: L. donovani strain MHOM/IN/54LRC-L.51 promastigotes; assay: Effect on pathogens in vitro: promastigote culture, 96 hours, counting chamber (Example 41); type: cell-based; details: 96 hours of incubation, 26° C., mean and SD of 3 experiments; for IC50: Leishmania donovani
Method: Several compounds of the invention were tested against L. donovani strain MHOM/IN/54LRC-L.51, isolated from a patient with visceral leishmaniasis. Before use for experiments, the strain was passed through Balb/c mice by intravenous injection.
Promastigotes were cultured in vitro in a mixed medium consisting of one part of HOSMEM and one part of RPMI-1640 (Gibco 041-02400) supplemented with 10% heat-inactivated fetal bovine serum (Gibco 011-06290) at 26° C. Cultures were maintained by seeding 5×10^6 promastigotes from 4-day-old cultures into 10 ml fresh medium. The promastigotes were cultured in 24-well-multiplates. After 96 hours of incubation in control or drug-containing media, the number of promastigotes was determined in a Neubauer counting chamber. The 50% inhibitory concentration was calculated graphically. The data is representative of the mean and SD values of 3 different experiments.

[4] = tested on: three strains of Leishmania (L. donovani MHOM/IN/54LRC-L.51; L. donovani MHOM/IN/80/DDS and L. infantum MHOM/ES/86/STI-172); assay: Effect on pathogens in vivo: parasite burden in liver and spleen of infected Balb/c mice (Example 42)
Method: Several compounds of the invention were tested against three strains of Leishmania (L. donovani MHOM/IN/54LRC-L.51; L. donovani MHOM/IN/80/DDS and L. infantum MHOM/ES/86/STI-172). All strains were isolated from patients with visceral leishmaniasis. Before use for experiments, the strains were passed through Balb/c mice by intravenous injection.
Balb/c mice were infected by intravenous injection of a mixture of 10^7 promastigotes from stationary growth phase and 10^7 amastigotes which were isolated from the liver or spleen of leishmania-infected mice. Oral treatment with the compounds of the invention was initiated on day 7, at which time the mean parasitic burden was 100 to 200×10^6 amastigotes per liver, 1 to 2×10^6 per spleen and 3 to 6 amastigotes per microscopic field of 100 hematopoietic cells in bone marrow.
Parasite burden in spleen and liver were determined in GIEMSA's stained impression smears from cut sections by counting the number of amastigotes per 1000 spleen or liver nuclei. The total number of amastigotes per organ was calculated according to Stauber et al. (J. Protozool. 5:269-273 (1958)). Parasite suppression (parasite burden of drug treated mice to parasite burden of untreated mice) and parasite killing (parasite burden at the end of treatment to parasite burden at the start of treatment) were calculated according to Baumann et al. (Antimicrob. Agents Chemother. 35:1403-1407 (1991)) for all strains on day 14, for the strain LRC-L.51 in addition on days 21, 25 and 35 post-infectionem. The parasite burden in the bone marrow was examined on days 7 and 35 post-infectionem (strain LRC-L.51).
Table V summarizes the in vivo treatment results of several compounds of the invention in the liver and the spleen of treated mice. […] However, it is clear from the Table that the compounds of the invention produced much better results.

Leishmania = assay: Four-week treatment period of Leishmania-infected mice (Example 43); type: in vivo
Excerpt: In a further experiment, hexadecylphosphocholine was investigated in more detail.

[5] = in vivo, sc; cited from earlier work
[6] = procedure as in example 39 (orally 5 × 20 mg/kg/week)

| Compound | IC50 [3] | IC50 Value [3] | Pathogens per liver (in millions) (L. donovani [1]) | Pathogens per spleen (in millions) (L. donovani [2]; [6]) | Relative effectiveness (pathogens per spleen after Pentostam therapy divided by pathogens/spleen after addition of test substance) (L. donovani [2]) | Parasites (× 10^6) Liver ([4]; oral treatment, dose 20 mg/kg) | Parasites (× 10^6) Spleen ([4]; oral treatment, dose 20 mg/kg) | also measured |
| --- | --- | --- | --- | --- | --- | --- | --- | --- |
| CCCCCCCCCCCCCCCCCCOCC(COP(=O)([O-])OCC[N+](C)(C)C)OC (racemic) [Et18OCH3, 1-octadecyl-2-methyl-rac-glycero-3-phosphocholine, reference compound] |  |  | 424.7 millions | 6.5 millions | 0.9 |  |  | Relative effectiveness (pathogens per liver after Pentostam therapy divided by pathogens/liver after addition of test substance) (L. donovani [1]): 0.007 |
| CCCCCCCC/C=C\CCCCCCCCOP(=O)([O-])OCC[N+](C)(C)CC [Example 7, Oleylphospho-(N.N-dimethyl-N-ethyl)ethanolamine] |  |  | 4.7 millions | 0.03 millions | 210.0 |  |  | Relative effectiveness (pathogens per liver after Pentostam therapy divided by pathogens/liver after addition of test substance) (L. donovani [1]; 20 mg/kg): 0.7; Relative effectiveness (pathogens per liver after Pentostam therapy divided by pathogens/liver after addition of test substance) (L. donovani [1]; listed as olely-phospho-(N.N-dimethyl-N-ethyl)ethanolamine, 20 mg/kg): comparable effect to Pentostam |
| CCCCCCCCCCCCCCCCCCOP(=O)([O-])OCC[N+]1(C)CCCC1 [Example 19, Octadecylphospho-(N-methyl)-pyrrolidino-ethyl ester] |  | 3.59 ± 0.19 µg/mL (≈ 7.78 µM) |  |  |  | 22 × 10^6 | 0.035 × 10^6 |  |
| O.O.O.O.O.O.O.O.O.O=C([O-])[C@@H]1[O][Sb]2([O-])([O][Sb]34([OH])[O][C@H]([C@H](O)CO)[C@H]([O]3)[C@H](C(=O)[O-])[O]4)[O][C@H]([C@H](O)CO)[C@@H]1[O]2.[Na+].[Na+].[Na+] [Pentostam, sodium stibogluconate, reference compound] |  |  |  |  |  |  |  | Parasites (× 10^6) Liver ([4]; Pentostam, dose 120 mg/kg): significantly reduced the parasite burden; Parasites (× 10^6) Spleen ([4]; Pentostam, dose 120 mg/kg): significantly reduced the parasite burden; Suppression of parasite growth in the spleen compared to control mice (Leishmania; spleen, Pentostam): only a moderate suppression of parasite growth; Pathogens per spleen (in millions) (L. donovani [2]; procedure as in example 39 (Pentostam iv. 5 × 120 mg/kg/week), 120 mg/kg): weak effect; also recorded: extremely low effectiveness |
| octadecylphosphoethanol-(N-methyl)piperidine |  | 4.90 ± 0.50 µg/mL |  |  |  | 65 × 10^6 | 0.35 × 10^6 |  |

More lines, main results first:

| IC50 [3] | IC50 Value [3] | Compound | Pathogens per liver (in millions) (L. donovani [1]) | Pathogens per spleen (in millions) (L. donovani [2]; [6]) | Relative effectiveness (pathogens per spleen after Pentostam therapy divided by pathogens/spleen after addition of test substance) (L. donovani [2]) | Parasites (× 10^6) Liver ([4]; oral treatment, dose 20 mg/kg) | Parasites (× 10^6) Spleen ([4]; oral treatment, dose 20 mg/kg) | also measured |
| --- | --- | --- | --- | --- | --- | --- | --- | --- |
| 2.07 ± 0.23 µg/mL (≈ 5.08 µM) |  | CCCCCCCCCCCCCCCCOP(=O)([O-])OCC[N+](C)(C)C [Example 1, Hexadecylphosphocholine] | 0.1 millions | 0.01 millions |  | 0.07 × 10^6 | 0.008 × 10^6 | Parasites microscopically detectable in the liver and in the spleen (L. donovani [1]; additional experiments, single oral dose of 200 mg): no longer microscopically detectable; Spleen Weight (Leishmania; Leishmania-infected mice, 10 mg (oral)): 150 mg; Reduction of parasites in the spleen (Leishmania; spleen, oral treatment with 20 mg/kg): more than three log rank reduction of parasites; Parasites microscopically detectable (L. donovani [2]; several additional experiments (Example 40, spleen), single oral dose of 200 mg): no longer microscopically detectable; Toxicity for the experimental animals, in particular for macrophages [5]: highly toxic |
| 0.8 ± 0.2 µg/mL (≈ 1.84 µM) |  | CCCCCCCCCCCCCCCCCCOP(=O)([O-])OCC[N+](C)(C)C [Example 2, Octadecylphosphocholine] | 0.1 millions | 0.01 millions | 630.0 | 0.07 × 10^6 | 0.015 × 10^6 | Relative effectiveness (pathogens per liver after Pentostam therapy divided by pathogens/liver after addition of test substance) (L. donovani [1]): 32.0 |
| 0.41 ± 0.14 µg/mL (≈ 0.946 µM) |  | CCCCCCCC/C=C/CCCCCCCCOP(=O)([O-])OCC[N+](C)(C)C [Example 4, Elaidylphosphocholine] |  |  |  | 28 × 10^6 | 0.02 × 10^6 |  |
|  | 2.80 ± 0.50 µg/mL (≈ 6.06 µM) | CCCCCCCC/C=C\CCCCCCCCOP(=O)([O-])OCC[N+](C)(CC)CC [Example 20, Oleylphospho-(N.N-diethyl-N-methyl)-ethanolamine] |  |  |  | 55 × 10^6 | 3.8 × 10^6 |  |
|  | 0.66 ± 0.24 µg/mL (≈ 1.39 µM) | CCCCCCCC/C=C\CCCCCCCCOP(=O)([O-])OCC[N+](CC)(CC)CC [cis-9-octadecenylphospho-(N,N-diethyl,N-ethylamino)ethanol] |  |  |  | 6 × 10^6 | 0.03 × 10^6 |  |
